Measured values published in patent US20140045856A1, “4-Methyl-2,3,5,9,9b-pentaaza-cyclopenta[a]naphthalenes” (BOEHRINGER INGELHEIM INTERNATIONAL GMBH, priority 2012, published 2014).

Biological target: T1, PDE2A (Homo sapiens, UniProt O00408)
Experiment: Radioactive PDE2 assay ([3H]cAMP SPA)
Type: biochemical
Conditions: not given

T1 sequence (O00408 whole entry, species assumed): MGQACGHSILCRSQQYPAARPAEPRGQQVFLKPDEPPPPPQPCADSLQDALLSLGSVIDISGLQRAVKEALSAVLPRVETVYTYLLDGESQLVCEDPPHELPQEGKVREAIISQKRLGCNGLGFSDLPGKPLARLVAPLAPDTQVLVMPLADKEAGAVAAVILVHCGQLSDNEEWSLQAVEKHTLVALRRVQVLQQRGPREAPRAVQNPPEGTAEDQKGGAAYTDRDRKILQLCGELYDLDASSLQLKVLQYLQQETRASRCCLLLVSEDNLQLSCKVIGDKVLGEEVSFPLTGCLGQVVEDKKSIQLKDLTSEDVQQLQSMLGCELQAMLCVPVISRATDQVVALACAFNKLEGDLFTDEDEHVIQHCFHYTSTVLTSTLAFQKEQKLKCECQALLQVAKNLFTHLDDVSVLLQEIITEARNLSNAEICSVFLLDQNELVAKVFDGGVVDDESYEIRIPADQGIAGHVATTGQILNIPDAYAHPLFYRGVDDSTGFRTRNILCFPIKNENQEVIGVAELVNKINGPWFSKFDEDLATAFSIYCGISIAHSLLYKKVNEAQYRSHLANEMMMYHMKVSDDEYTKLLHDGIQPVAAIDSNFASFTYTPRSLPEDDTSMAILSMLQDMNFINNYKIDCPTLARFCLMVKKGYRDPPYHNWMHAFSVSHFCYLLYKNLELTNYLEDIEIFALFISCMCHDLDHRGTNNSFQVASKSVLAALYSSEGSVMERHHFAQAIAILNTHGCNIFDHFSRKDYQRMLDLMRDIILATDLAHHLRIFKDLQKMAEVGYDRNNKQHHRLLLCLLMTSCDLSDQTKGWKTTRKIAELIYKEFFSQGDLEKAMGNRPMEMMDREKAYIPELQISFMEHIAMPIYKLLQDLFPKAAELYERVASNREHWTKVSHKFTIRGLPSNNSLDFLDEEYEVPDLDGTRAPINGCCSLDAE

Compound	IC50 [nM]
Cc1ccc2nc(C)c3nnc(-c4cc(OCCCOC(F)(F)F)ccc4Cl)n3c2n1 [Example 33]	4
Cc1ccc2nc(C)c3nnc(-c4cc(OC[C@H](C)O)ccc4Cl)n3c2n1 [Example 34]	9
Cc1ccc2nc(C)c3nnc(-c4cc(OC[C@@H](C)O)ccc4Cl)n3c2n1 [Example 35]	9
Cc1ccc2nc(C)c3nnc(-c4cccc(OCCCO)c4)n3c2n1 [Example 36]	219

Results, then the compound that gave them:

IC50 [nM]	Compound
171	Cc1nc2cccnc2n2c(-c3cc(OCC4(C)COC4)ccc3Cl)nnc12 [Example 37]
417	Cc1nc2cccnc2n2c(-c3cc(OC(C)C4CCOCC4)ccc3Cl)nnc12 (stereo not shown) [Example 38]
914	Cc1nc2cccnc2n2c(-c3cc(OC4CCC(O)CC4)ccc3Cl)nnc12 (stereo not shown) [Example 39]
80	Cc1nc2cccnc2n2c(-c3cc(OC4CCC(O)C4)ccc3Cl)nnc12 (stereo not shown) [Example 40]

Biological target: PDE 10A (Homo sapiens, UniProt Q9Y233)
Experiment: Radioactive PDE10 assay ([3H]cAMP SPA)
Type: biochemical
Conditions: not given

Sequence of PDE 10A (Q9Y233 whole entry, species assumed): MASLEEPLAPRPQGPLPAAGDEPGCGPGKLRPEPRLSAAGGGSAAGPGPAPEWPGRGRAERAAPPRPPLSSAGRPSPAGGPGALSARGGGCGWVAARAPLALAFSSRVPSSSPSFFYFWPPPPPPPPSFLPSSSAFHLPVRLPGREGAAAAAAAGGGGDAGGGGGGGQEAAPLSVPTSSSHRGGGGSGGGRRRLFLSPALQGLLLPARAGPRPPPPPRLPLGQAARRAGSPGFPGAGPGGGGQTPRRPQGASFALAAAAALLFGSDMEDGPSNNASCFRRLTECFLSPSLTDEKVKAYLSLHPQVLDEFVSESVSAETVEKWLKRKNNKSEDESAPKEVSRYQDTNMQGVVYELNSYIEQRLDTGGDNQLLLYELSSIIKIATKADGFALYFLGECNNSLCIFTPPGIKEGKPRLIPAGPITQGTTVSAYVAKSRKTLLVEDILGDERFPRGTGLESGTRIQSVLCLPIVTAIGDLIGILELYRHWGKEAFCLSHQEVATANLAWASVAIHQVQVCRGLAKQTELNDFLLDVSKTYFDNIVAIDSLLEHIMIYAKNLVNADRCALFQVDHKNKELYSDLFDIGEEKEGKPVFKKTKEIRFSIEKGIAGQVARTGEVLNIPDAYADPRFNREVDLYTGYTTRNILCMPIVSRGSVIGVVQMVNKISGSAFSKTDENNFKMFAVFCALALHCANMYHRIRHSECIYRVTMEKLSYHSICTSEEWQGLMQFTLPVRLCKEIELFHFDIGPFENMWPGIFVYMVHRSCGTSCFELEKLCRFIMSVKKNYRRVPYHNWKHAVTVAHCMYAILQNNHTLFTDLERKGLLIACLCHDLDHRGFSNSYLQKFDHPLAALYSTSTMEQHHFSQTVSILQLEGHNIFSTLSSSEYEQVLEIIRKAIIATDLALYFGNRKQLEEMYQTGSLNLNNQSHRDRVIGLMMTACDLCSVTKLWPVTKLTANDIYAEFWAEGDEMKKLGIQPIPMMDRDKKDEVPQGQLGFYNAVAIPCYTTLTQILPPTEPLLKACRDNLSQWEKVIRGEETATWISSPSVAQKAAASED

Compound	IC50 [nM]
Cc1ccc2nc(C)c3nnc(-c4cc(OCCCO)ccc4Cl)n3c2n1 [Example 27]	970
Cc1ccc2nc(C)c3nnc(-c4cccc(OCCCO)c4)n3c2n1 [Example 36]	850

The next lines start with the values.

IC50 [nM]	Compound
421	Cc1nc2cccnc2n2c(-c3cc(O)ccc3Cl)nnc12 [Example 1]
2760	Cc1nc2cccnc2n2c(-c3cc(OC4CCOCC4)ccc3Cl)nnc12 [Example 20]
3080	Cc1nc2cccnc2n2c(-c3cc(OCC4(C)COC4)ccc3Cl)nnc12 [Example 37]
1960	Cc1nc2cccnc2n2c(-c3cc(OC(C)C4CCOCC4)ccc3Cl)nnc12 (stereo not shown) [Example 38]
2100	Cc1nc2cccnc2n2c(-c3cc(OC4CCC(O)CC4)ccc3Cl)nnc12 (stereo not shown) [Example 39]

Biological target: T1, PDE2A
Experiment: PDE 2A assay with fluorescent substrate (IMAP, fluorescence polarization)
Type: biochemical
Conditions: read-out: PDE2 IC50

Compound	IC50 [nM]
Cc1ccc2nc(C)c3nnc(-c4cc(OCCCOC(F)(F)F)ccc4Cl)n3c2n1 [Example 33]	5
Cc1ccc2nc(C)c3nnc(-c4cc(OC[C@H](C)O)ccc4Cl)n3c2n1 [Example 34]	17
Cc1ccc2nc(C)c3nnc(-c4cc(OC[C@@H](C)O)ccc4Cl)n3c2n1 [Example 35]	17
Cc1nc2ccc(C3CC3)nc2n2c(-c3cc(OCC(C)(C)O)ccc3F)nnc12 [Example 47]	8
Cc1nc2ccc(C3CC3)nc2n2c(-c3cc(C(C)(C)O)ccc3F)nnc12 [Example 76]	21

Next, values leading:

IC50 [nM]	Compound
77	Cc1nc2cccnc2n2c(-c3cc(OC4CCC(O)C4)ccc3Cl)nnc12 (stereo not shown) [Example 40]
33	Cc1nc2cccnc2n2c(-c3cc(OCC4(O)CCC4)ccc3Cl)nnc12 [Example 49]
45	Cc1nc2cccnc2n2c(-c3cc(CCC(C)(C)O)ccc3Cl)nnc12 [Example 64]

Biological target: PDE10 (Homo sapiens, UniProt Q9Y233)
Experiment: PDE10 assay with fluorescent substrate (IMAP, fluorescence polarization)
Type: biochemical
Conditions: not given

Sequence of PDE10 (Q9Y233 whole entry, species assumed): as above

Compound	IC50 [nM]
Cc1ccc2nc(C)c3nnc(-c4cc(OCCCO)ccc4Cl)n3c2n1 [Example 27]	958
Cc1nc2ccc(C3CC3)nc2n2c(-c3cc(OCC(C)(C)O)ccc3F)nnc12 [Example 47]	852
Cc1nc2ccc(C3CC3)nc2n2c(-c3cc(C(C)(C)O)ccc3F)nnc12 [Example 76]	1100

The next lines start with the values.

IC50 [nM]	Compound
355	Cc1nc2cccnc2n2c(-c3cc(O)ccc3Cl)nnc12 [Example 1]
3760	Cc1nc2cccnc2n2c(-c3cc(OCC4(O)CCC4)ccc3Cl)nnc12 [Example 49]
3870	Cc1nc2cccnc2n2c(-c3cc(CCC(C)(C)O)ccc3Cl)nnc12 [Example 64]

System: not listed separately
Experiment: Animal experiments and sample analysis: plasma, brain and CSF concentration
Type: in vivo
Conditions: brain; rat; 0.5 h between administration and CSF sampling; doses of 10.0 or 5 μmol/kg; read-out: conc brain
Method: Test compounds were administered to animals (rat) different routes at doses of 10.0 or 5 μmol/kg, (both oral and intravenous). After compound administration, the animals were sacrificed in a CO2 chamber and CSF samples were carefully collected by puncture of the cisterna magna. Immediately after CSF sampling, blood was taken by heart puncture and brains were dissected out. Blood was collected in EDTA-coated microvettes and plasma was prepared by centrifugation. Concentration of the test compounds in plasma, CSF or brain homogenate was determined using HPLC-MS-MS.

concentration at 0.5 h [nM]	Compound
272	Cc1nc2cccnc2n2c(-c3cc(OC4CCOCC4)ccc3Cl)nnc12 [Example 20]
146	Cc1ccc2nc(C)c3nnc(-c4cc(OC[C@H](C)O)ccc4Cl)n3c2n1 [Example 34]

Same assay, conditions: brain; rat; 2 h between administration and CSF sampling; doses of 10.0 or 5 μmol/kg; read-out: conc brain

Compound	concentration at 2 h [nM]
Cc1nc2ccc(C3CC3)nc2n2c(-c3cc(OCC(C)(C)O)ccc3F)nnc12 [Example 47]	441
Cc1nc2ccc(C3CC3)nc2n2c(-c3cc(C(C)(C)O)ccc3F)nnc12 [Example 76]	218

Further lines, results first:

concentration at 2 h [nM]	Compound
47	Cc1nc2cccnc2n2c(-c3cc(OCC4(O)CCC4)ccc3Cl)nnc12 [Example 49]
254	Cc1nc2cccnc2n2c(-c3cc(CCC(C)(C)O)ccc3Cl)nnc12 [Example 64]

Same assay, conditions: brain; rat; 2 h between administration and CSF sampling; read-out: c(brain)/c(plasma)

Compound	Kp at 2 h
Cc1nc2ccc(C3CC3)nc2n2c(-c3cc(OCC(C)(C)O)ccc3F)nnc12 [Example 47]	0.7
Cc1nc2ccc(C3CC3)nc2n2c(-c3cc(C(C)(C)O)ccc3F)nnc12 [Example 76]	0.5

More lines, now with the values ahead:

Kp at 2 h	Compound
0.2	Cc1nc2cccnc2n2c(-c3cc(OCC4(O)CCC4)ccc3Cl)nnc12 [Example 49]
0.5	Cc1nc2cccnc2n2c(-c3cc(CCC(C)(C)O)ccc3Cl)nnc12 [Example 64]

Same assay, conditions: plasma; rat; 0.5 h between administration and CSF sampling; doses of 10.0 or 5 μmol/kg; read-out: conc plasma

concentration at 0.5 h [nM]	Compound
338	Cc1nc2cccnc2n2c(-c3cc(OC4CCOCC4)ccc3Cl)nnc12 [Example 20]
223	Cc1ccc2nc(C)c3nnc(-c4cc(OC[C@H](C)O)ccc4Cl)n3c2n1 [Example 34]

Same assay, conditions: plasma; rat; 2 h between administration and CSF sampling; doses of 10.0 or 5 μmol/kg; read-out: conc plasma

Compound	concentration at 2 h [nM]
Cc1nc2ccc(C3CC3)nc2n2c(-c3cc(OCC(C)(C)O)ccc3F)nnc12 [Example 47]	622
Cc1nc2ccc(C3CC3)nc2n2c(-c3cc(C(C)(C)O)ccc3F)nnc12 [Example 76]	463

Other lines, results leading:

concentration at 2 h [nM]	Compound
239	Cc1nc2cccnc2n2c(-c3cc(OCC4(O)CCC4)ccc3Cl)nnc12 [Example 49]
783	Cc1nc2cccnc2n2c(-c3cc(CCC(C)(C)O)ccc3Cl)nnc12 [Example 64]

Same assay, conditions: rat; 0.5 h between administration and CSF sampling; doses of 10.0 or 5 μmol/kg; read-out: conc CSF

concentration at 0.5 h [nM]	Compound
37	Cc1nc2cccnc2n2c(-c3cc(OC4CCOCC4)ccc3Cl)nnc12 [Example 20]
19	Cc1ccc2nc(C)c3nnc(-c4cc(OC[C@H](C)O)ccc4Cl)n3c2n1 [Example 34]

Same assay, conditions: rat; 2 h between administration and CSF sampling; doses of 10.0 or 5 μmol/kg; read-out: conc CSF

Compound	concentration at 2 h [nM]
Cc1nc2ccc(C3CC3)nc2n2c(-c3cc(OCC(C)(C)O)ccc3F)nnc12 [Example 47]	22
Cc1nc2ccc(C3CC3)nc2n2c(-c3cc(C(C)(C)O)ccc3F)nnc12 [Example 76]	18

Second part, the compound after the results:

concentration at 2 h [nM]	Compound
13	Cc1nc2cccnc2n2c(-c3cc(OCC4(O)CCC4)ccc3Cl)nnc12 [Example 49]
37	Cc1nc2cccnc2n2c(-c3cc(CCC(C)(C)O)ccc3Cl)nnc12 [Example 64]

Same assay, conditions: rat; 2 h between administration and CSF sampling; read-out: c(CSF)/c(plasma)

Compound	Kp at 2 h
Cc1nc2ccc(C3CC3)nc2n2c(-c3cc(OCC(C)(C)O)ccc3F)nnc12 [Example 47]	0.04
Cc1nc2ccc(C3CC3)nc2n2c(-c3cc(C(C)(C)O)ccc3F)nnc12 [Example 76]	0.04

Next, values leading:

Kp at 2 h	Compound
0.06	Cc1nc2cccnc2n2c(-c3cc(OCC4(O)CCC4)ccc3Cl)nnc12 [Example 49]
0.06	Cc1nc2cccnc2n2c(-c3cc(CCC(C)(C)O)ccc3Cl)nnc12 [Example 64]

System: not listed separately
Experiment: Metabolic stability in pooled liver microsomes
Type: in vitro ADME
Conditions: human liver microsomes, 37° C., 1 mg/mL microsomal protein, test compound 1 μM, NADPH
Method: The metabolic stability of the compounds according to the invention has been investigated as follows:
The metabolic degradation of the test compound was assayed at 37° C. with pooled liver microsomes from various species. The final incubation volume of 100 μl per time point contains TRIS buffer pH 7.6 at room temperature (0.1 M), magnesium chloride (5 mM), microsomal protein (1 mg/mL for human and dog, 0.5 mg/mL for other species) and the test compound at a final concentration of 1 μM. Following a short preincubation period at 37° C., the reactions were initiated by addition of betanicotinamide adenine dinucleotide phosphate, reduced form (NADPH, 1 mM), and terminated by transferring an aliquot into solvent after different time points. […] The half-life was determined by the slope of the semi-logarithmic plot of the concentration-time profile.

Compound	Half-life - t½ [h]
Cc1ccc2nc(C)c3nnc(-c4cc(OC[C@H](C)O)ccc4Cl)n3c2n1 [Example 34]	2.17
Cc1ccc2nc(C)c3nnc(-c4cc(OC[C@@H](C)O)ccc4Cl)n3c2n1 [Example 35]	2.17
Cc1nc2ccc(C3CC3)nc2n2c(-c3cc(OCC(C)(C)O)ccc3F)nnc12 [Example 47]	2.17
Cc1nc2ccc(C3CC3)nc2n2c(-c3cc(C(C)(C)O)ccc3F)nnc12 [Example 76]	2.17

Further lines, results first:

Half-life - t½ [h]	Compound
2.17	Cc1nc2cccnc2n2c(-c3cc(O)ccc3Cl)nnc12 [Example 1]
2.17	Cc1nc2cccnc2n2c(-c3cc(OC4CCOCC4)ccc3Cl)nnc12 [Example 20]
2.17	Cc1nc2cccnc2n2c(-c3cc(OCC4(O)CCC4)ccc3Cl)nnc12 [Example 49]
2.17	Cc1nc2cccnc2n2c(-c3cc(CCC(C)(C)O)ccc3Cl)nnc12 [Example 64]

Biological target: hERG channel (Homo sapiens, UniProt Q12809)
Experiment: hERG channel assay (whole-cell patch clamp, HEK293 cells transfected with hERG cDNA)
Type: cell-based
Conditions: 35° C.
From the text: hERG (Human Ether-à-Go-Go-Related Gene)-Channel Assay
hERG channel inhibition of compounds of the present invention has been investigated as follows:
HEK (human embryonic kidney) 293 cells were stably transfected with hERG cDNA. Cells were superfused with a bath solution containing (mM): NaCl (137), KCl (4.0), MgCl2 (1.0), CaCl2 (1.8), Glucose (10), HEPES (10), pH 7.4 with NaOH. Patch pipettes were made from borosilicate glass tubing using a horizontal puller and filled with pipette solution containing (mM): K-aspartate (130), MgCl2 (5.0), EGTA (5.0), K2ATP (4.0), HEPES (10.0), pH 7.2 with KOH. Resistance of the microelectrodes was in the range between 2 and 5 MΩ.
Stimulation and Recording:
Membrane currents were recorded using an EPC-10 patch clamp amplifier and PatchMaster software. hERG-mediated membrane currents were recorded at 35° C., using the whole-cell configuration of the patch-clamp technique. Transfected HEK293 cells were clamped at a holding potential of −60 mV and hERG-mediated inactivating tail currents were elicited using a pulse pattern with fixed amplitudes (activation/inactivation: 40 mV for 2000 ms; recovery: […]; ramp to 40 mV in 2 ms; inactivating tail current: 40 mV for 50 ms) repeated at 15 s intervals. During each inter-pulse interval 4 pulses scaled down by a factor of 0.2 were recorded for a P/n leak subtraction procedure. […] compensation was employed up to a level that safely allowed recording devoid of ringing.
Compound Preparation and Application:
The different concentrations of the test compound were applied sequentially on each of the different cells investigated. A steady state level of baseline current was measured for at least 6 sweeps prior to the application of the first test compound concentration.
The test compound was dissolved in DMSO to yield a master stock solution which was diluted further in DMSO to stock solutions needed for the lower concentrations. Final dilutions in extracellular buffer were prepared freshly from these stocks by a 1:1000 dilution step each before starting the experiments.
Data analysis and IC50 determination:
Peak current amplitudes were measured 3 ms after the ramp to +40 mV. For baseline and each concentration the peak currents of the three last sweeps before application of the next concentration were averaged. Residual currents ( 1/10) were calculated for each cell as the fraction of actual average peak current and average baseline peak current.
The logistic concentration-response curve of the following form was fitted to the residual current data using a genetic algorithm:
C: actual concentration of compound (in μM) IC50: half-inhibitory concentration (in μM) p: Hill slope

Sequence of hERG channel (Q12809 whole entry): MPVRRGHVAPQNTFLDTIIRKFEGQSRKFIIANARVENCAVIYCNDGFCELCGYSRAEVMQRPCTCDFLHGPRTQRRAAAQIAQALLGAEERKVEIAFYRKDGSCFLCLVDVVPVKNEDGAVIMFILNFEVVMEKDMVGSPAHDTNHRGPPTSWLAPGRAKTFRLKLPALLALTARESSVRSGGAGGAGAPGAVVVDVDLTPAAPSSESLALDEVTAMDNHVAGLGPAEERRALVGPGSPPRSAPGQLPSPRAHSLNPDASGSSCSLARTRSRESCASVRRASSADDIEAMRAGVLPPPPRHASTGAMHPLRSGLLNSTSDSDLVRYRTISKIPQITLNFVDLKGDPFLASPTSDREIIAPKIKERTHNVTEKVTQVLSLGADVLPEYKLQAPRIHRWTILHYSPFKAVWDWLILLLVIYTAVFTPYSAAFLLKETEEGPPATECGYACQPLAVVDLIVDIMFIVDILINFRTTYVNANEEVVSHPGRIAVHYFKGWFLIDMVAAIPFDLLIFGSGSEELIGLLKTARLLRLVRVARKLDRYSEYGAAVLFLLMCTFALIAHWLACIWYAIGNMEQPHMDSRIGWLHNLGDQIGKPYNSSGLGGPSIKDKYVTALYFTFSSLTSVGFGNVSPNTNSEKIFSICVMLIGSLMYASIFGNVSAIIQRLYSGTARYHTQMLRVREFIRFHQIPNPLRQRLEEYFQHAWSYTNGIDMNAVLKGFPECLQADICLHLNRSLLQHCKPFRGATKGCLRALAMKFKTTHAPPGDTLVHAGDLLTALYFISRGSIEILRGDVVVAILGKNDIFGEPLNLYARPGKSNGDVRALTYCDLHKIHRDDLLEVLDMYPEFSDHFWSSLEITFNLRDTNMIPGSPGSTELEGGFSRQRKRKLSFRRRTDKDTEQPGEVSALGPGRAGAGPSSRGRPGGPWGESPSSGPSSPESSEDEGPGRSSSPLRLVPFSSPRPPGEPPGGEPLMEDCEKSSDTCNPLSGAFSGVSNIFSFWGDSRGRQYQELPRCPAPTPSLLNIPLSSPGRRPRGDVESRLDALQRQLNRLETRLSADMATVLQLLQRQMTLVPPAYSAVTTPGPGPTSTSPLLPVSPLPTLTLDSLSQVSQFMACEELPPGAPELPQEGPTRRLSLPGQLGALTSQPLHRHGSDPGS

Compound	IC50 [nM]
Cc1nc2cccnc2n2c(-c3cc(OC4CCOCC4)ccc3Cl)nnc12 [Example 20]	> 10000
Cc1ccc2nc(C)c3nnc(-c4cc(OCCCO)ccc4Cl)n3c2n1 [Example 27]	> 10000
Cc1ccc2nc(C)c3nnc(-c4cc(OC[C@H](C)O)ccc4Cl)n3c2n1 [Example 34]	> 10000
Cc1nc2ccc(C3CC3)nc2n2c(-c3cc(OCC(C)(C)O)ccc3F)nnc12 [Example 47]	> 10000
Cc1nc2cccnc2n2c(-c3cc(OCC4(O)CCC4)ccc3Cl)nnc12 [Example 49]	> 10000
Cc1nc2cccnc2n2c(-c3cc(CCC(C)(C)O)ccc3Cl)nnc12 [Example 64]	> 10000
Cc1nc2ccc(C3CC3)nc2n2c(-c3cc(C(C)(C)O)ccc3F)nnc12 [Example 76]	> 10000
